Results reported in ChEMBL document CHEMBL4680208, “Sulfone derivatives enter the cytoplasm of Candida albicans sessile cells” (Eur J Med Chem, 2020).
Activity calls are given as the source filed them. The rule behind the calls is not given here.

Tests used:
Candida albicans [1] = assay: Antifungal activity against Candida albicans 90028 assessed as fungal growth inhibition at 2 ug/ml measured after 18 hrs by microdilution method relative to control; type: functional; details: read-out: GI
[2] = Drug uptake in Galleria mellonella larvae assessed as increase in fluorescence near the proventriculus measured after 2 hrs by fluorescence assay; type: ADME
Candida albicans [3] = assay: Antifungal activity against Candida albicans 90028 assessed as fungal growth inhibition at 0.0625 ug/ml measured after 18 hrs by microdilution method relative to control; type: functional; details: read-out: GI
Candida albicans [4] = assay: Antifungal activity against Candida albicans 90028 assessed as fungal growth inhibition at 0.25 ug/ml measured after 48 hrs by microdilution method relative to control; type: functional; details: read-out: GI
Candida albicans [5] = assay: Antifungal activity against Candida albicans 90028 assessed as fungal growth inhibition at 0.125 ug/ml measured after 18 hrs by microdilution method relative to control; type: functional; details: read-out: GI
[6] = Drug uptake in Galleria mellonella larvae assessed as increase in fluorescence in longitudinal larva slides measured after 2 hrs by fluorescence assay; type: ADME, tissue-based
Candida albicans [7] = assay: Antifungal activity against Candida albicans 90028 assessed as fungal growth inhibition at 0.125 ug/ml measured after 48 hrs by microdilution method relative to control; type: functional; details: read-out: GI
Candida albicans [8] = assay: Induction of plasma membrane permeabilization in Candida albicans infected in human TR146 cells at 16 ug/ml measured after 18 hrs by propidium iodide staining based confocal laser scanning microscopy; type: functional, organism-based; details: dose 16.0 µg/ml
Candida albicans [9] = assay: Antifungal activity against Candida albicans 90028 assessed as fungal growth inhibition at 2 ug/ml measured after 48 hrs by microdilution method relative to control; type: functional; details: read-out: GI
Candida albicans [10] = assay: Antifungal activity against Candida albicans 90028 assessed as fungal growth inhibition at 1 ug/ml measured after 48 hrs by microdilution method relative to control; type: functional; details: read-out: GI
Candida albicans [11] = assay: Induction of cell demise in Candida albicans infected in human TR146 cells at 16 ug/ml measured after 18 hrs by AO/propidium iodide staining based confocal laser scanning microscopy; type: functional, organism-based; details: dose 16.0 µg/ml
Candida albicans [12] = assay: Antifungal activity against Candida albicans 90028 assessed as fungal growth inhibition at 0.5 ug/ml measured after 18 hrs by microdilution method relative to control; type: functional; details: read-out: GI
Candida albicans [13] = assay: Antifungal activity against Candida albicans 90028 assessed as fungal growth inhibition at 8 ug/ml measured after 18 hrs by microdilution method relative to control; type: functional; details: read-out: GI
Candida albicans [14] = assay: Induction of plasma membrane permeabilization in Candida albicans infected in human MRC5 cells at 16 ug/ml measured after 18 hrs by propidium iodide staining based confocal laser scanning microscopy; type: functional, organism-based; details: dose 16.0 µg/ml
Candida albicans [15] = assay: Antifungal activity against Candida albicans 90028 assessed as fungal growth inhibition at 0.0313 ug/ml measured after 48 hrs by microdilution method relative to control; type: functional; details: read-out: GI
Candida albicans [16] = assay: Antifungal activity against Candida albicans 90028 assessed as fungal growth inhibition at 0.5 ug/ml measured after 48 hrs by microdilution method relative to control; type: functional; details: read-out: GI
Candida albicans [17] = assay: Antifungal activity against Candida albicans 90028 assessed as fungal growth inhibition at 16 ug/ml measured after 18 hrs by microdilution method relative to control; type: functional; details: read-out: GI
Candida albicans [18] = assay: Antifungal activity against Candida albicans 90028 assessed as fungal growth inhibition at 0.0313 ug/ml measured after 18 hrs by microdilution method relative to control; type: functional; details: read-out: GI
Candida albicans [19] = assay: Antifungal activity against Candida albicans 90028 assessed as fungal growth inhibition at 0.25 ug/ml measured after 18 hrs by microdilution method relative to control; type: functional; details: read-out: GI
Candida albicans [20] = assay: Antifungal activity against Candida albicans 90028 assessed as fungal growth inhibition measured after 48 hrs by microdilution method; type: functional
Candida albicans [21] = assay: Induction of cell demise in Candida albicans infected in human MRC5 cells at 16 ug/ml measured after 18 hrs by AO/propidium iodide staining based confocal laser scanning microscopy; type: functional, organism-based; details: dose 16.0 µg/ml
Candida albicans [22] = assay: Antifungal activity against Candida albicans 90028 assessed as fungal growth inhibition at 4 ug/ml measured after 48 hrs by microdilution method relative to control; type: functional; details: read-out: GI
[23] = Toxicity in Galleria mellonella larvae assessed as survival at 16 ug/ml relative to control; details: at 16 µg/mL
Candida albicans [24] = assay: Antifungal activity against Candida albicans 90028 assessed as fungal growth inhibition at 16 ug/ml measured after 48 hrs by microdilution method relative to control; type: functional; details: read-out: GI
Candida albicans [25] = assay: Antifungal activity against Candida albicans 90028 assessed as fungal growth inhibition at 8 ug/ml measured after 48 hrs by microdilution method relative to control; type: functional; details: read-out: GI
Candida albicans [26] = assay: Antifungal activity against Candida albicans 90028 assessed as fungal growth inhibition at 4 ug/ml measured after 18 hrs by microdilution method relative to control; type: functional; details: read-out: GI
[27] = Cytotoxicity against human MRC5 cells by CellTiter 96 Aqueous One Solution Reagent based assay; type: cell-based
Candida albicans [28] = assay: Fungicidal activity against Candida albicans 90028 preincubated for 48 hrs followed by plating on SD agar and measured after 48 hrs; type: functional; details: time 96 hrs
Vero = assay: Cytotoxicity against African green monkey Vero cells at 0.25 to 512 ug/ml by XTT assay relative to control; type: cell-based; details: chlorocebus sabaeus, at 0.25 to 512 µg/mL, dose 0.25-512 µg/ml
Candida albicans [29] = assay: Antifungal activity against Candida albicans 90028 assessed as fungal growth inhibition at 1 ug/ml measured after 18 hrs by microdilution method relative to control; type: functional; details: read-out: GI
Candida albicans [30] = assay: Antifungal activity against Candida albicans 90028 infected in Galleria mellonella larvae at 16 ug/ml by H and E staining based histological analysis; type: functional, organism-based; details: dose 16.0 µg/ml
Candida albicans [31] = assay: Antifungal activity against Candida albicans 90028 assessed as fungal growth inhibition at 0.0625 ug/ml measured after 48 hrs by microdilution method relative to control; type: functional; details: read-out: GI
[32] = Cytotoxicity against African green monkey Vero cells by XTT assay; type: cell-based; details: chlorocebus sabaeus
Candida albicans [33] = assay: Antibiofilm activity against Candida albicans 90028 assessed as increasing in cell killing by XTT assay; type: functional
[34] = Drug uptake in Galleria mellonella larvae assessed as increase in fluorescence between cell wall and muscle layer measured after 2 hrs by fluorescence assay; type: ADME
Candida albicans [35] = assay: Antifungal activity against Candida albicans 90028 infected in Galleria mellonella larvae assessed as increase in larvae survival at MFC measured 96 hrs post-infection relative to control; type: functional

| Structure (SMILES) | inhibition of growth at 2 µg/mL (Candida albicans [1]) | inhibition of growth at 0.0625 µg/mL (Candida albicans [3]) | inhibition of growth at 0.25 µg/mL (Candida albicans [4]) | inhibition of growth at 0.125 µg/mL (Candida albicans [5]) | inhibition of growth at 0.125 µg/mL (Candida albicans [7]) | Activity (Candida albicans [8]) | inhibition of growth at 2 µg/mL (Candida albicans [9]) | inhibition of growth at 1 µg/mL (Candida albicans [10]) | Activity (Candida albicans [11]) | inhibition of growth at 0.5 µg/mL (Candida albicans [12]) | inhibition of growth at 8 µg/mL (Candida albicans [13]) | Activity (Candida albicans [14]) | inhibition of growth at 0.0313 µg/mL (Candida albicans [15]) | inhibition of growth at 0.5 µg/mL (Candida albicans [16]) | inhibition of growth at 16 µg/mL (Candida albicans [17]) | inhibition of growth at 0.0313 µg/mL (Candida albicans [18]) | inhibition of growth at 0.25 µg/mL (Candida albicans [19]) | Activity (Candida albicans [21]) | inhibition of growth at 4 µg/mL (Candida albicans [22]) | survival [23] | further results |
| --- | --- | --- | --- | --- | --- | --- | --- | --- | --- | --- | --- | --- | --- | --- | --- | --- | --- | --- | --- | --- | --- |
| O=[N+]([O-])c1cc(S(=O)(=O)C(F)(F)Cl)ccc1N/N=C\c1ccc(C2=C3C=CC=[N+]3[B-](F)(F)n3cccc32)cc1 | 99.9% | 100% | 99.9% | 99.8% | 100% | Active | 100% | 100% | Active | 99.8% | 100% | Active | 99.8% | 100% | 100% | 100% | 100% | Active | 100% | 93% | Drug uptake [2]: Active; Drug uptake [6]: Not Active; MIC (Candida albicans [20]): inactive; inhibition of growth at 16 µg/mL (Candida albicans [24]): 100%; inhibition of growth at 8 µg/mL (Candida albicans [25]): 100%; inhibition of growth at 4 µg/mL (Candida albicans [26]): 100%; CC50 [27]: ≥ 16 µg/mL; MFC (Candida albicans [28]): ≥ 16 µg/mL; Activity (Vero): 100%; inhibition of growth at 1 µg/mL (Candida albicans [29]): 100%; Activity (Candida albicans [30]): inactive; inhibition of growth at 0.0625 µg/mL (Candida albicans [31]): 99.8% |
| O=[N+]([O-])c1cc(S(=O)(=O)C(F)(F)I)ccc1N/N=C\c1ccc(C2=C3C=CC=[N+]3[B-](F)(F)n3cccc32)cc1 | 100% | 100% | 97% | 100% | 95.5% | Active | 100% | 100% | Active | 100% | 100% | Active | 75.8% | 100% | 100% | 100% | 100% | Active | 100% | 100% | Drug uptake [6]: Not Active; CC50 [32]: ≥ 8 µg/mL; MIC (Candida albicans [20]): inactive; inhibition of growth at 16 µg/mL (Candida albicans [24]): 100%; inhibition of growth at 8 µg/mL (Candida albicans [25]): 100%; inhibition of growth at 4 µg/mL (Candida albicans [26]): 100%; CC50 [27]: ≥ 16 µg/mL; MFC (Candida albicans [28]): ≥ 16 µg/mL; inhibition of growth at 1 µg/mL (Candida albicans [29]): 100%; Activity (Candida albicans [30]): inactive; inhibition of growth at 0.0625 µg/mL (Candida albicans [31]): 94.3% |
| C[C@@H]1[C@H](O)[C@@H](C)/C=C/C=C/C=C/C=C/C=C/C=C/C=C/[C@H](O[C@@H]2O[C@H](C)[C@@H](O)[C@H](N)[C@@H]2O)C[C@@H]2O[C@](O)(C[C@@H](O)C[C@@H](O)[C@H](O)CC[C@@H](O)C[C@@H](O)CC(=O)O[C@H]1C)C[C@H](O)[C@H]2C(=O)O | – | – | – | – | – | – | – | – | – | – | – | – | – | – | – | – | – | – | – | – | Activity (Candida albicans [33]): Active |
| O=[N+]([O-])c1cc(S(=O)(=O)C(Cl)(Cl)Br)ccc1N/N=C\c1ccc(C2=C3C=CC=[N+]3[B-](F)(F)n3cccc32)cc1 | 100% | 99.8% | 100% | 99.7% | 99.7% | Active | 100% | 100% | Active | 100% | 100% | Active | 99.7% | 100% | 100% | 99.7% | 100% | Active | 100% | 93% | Drug uptake [2]: Active; CC50 [32]: ≥ 8 µg/mL; Drug uptake [34]: Active; inhibition of growth at 16 µg/mL (Candida albicans [24]): 100%; inhibition of growth at 8 µg/mL (Candida albicans [25]): 100%; inhibition of growth at 4 µg/mL (Candida albicans [26]): 100%; CC50 [27]: ≥ 256 µg/mL; MFC (Candida albicans [28]): ≥ 16 µg/mL; inhibition of growth at 1 µg/mL (Candida albicans [29]): 100%; Activity (Candida albicans [35]): 61.47%; Activity (Candida albicans [30]): Active; inhibition of growth at 0.0625 µg/mL (Candida albicans [31]): 99.8% |
| O=Cc1ccc(C2=C3C=CC=[N+]3[B-](F)(F)n3cccc32)cc1 | – | – | – | – | – | – | – | – | – | – | – | – | – | – | – | – | – | – | – | – | Drug uptake [34]: Active |
